Laboratory results published in patent US20240215873A1, “Aptamer Sensors with Temperature Correction” (University of Cincinnati, priority 2021, published 2024).

Conditions: room temperature; saturated concentration of target analyte; 20 mM tris buffer
Procedure: The sensors were all interrogated in 20 mM tris buffer (20 mM trizma base, 100 mM NaCl and 5 mM MgCl2). FIG. 5 illustrates the equilibration of a sensor response with or without the presence of analyte target such as ATP, Tobramycin, or Cocaine.
The aptamers were equilibrated, interrogated, and regenerated in tris buffer at 1° C., 22° C. and 37° C. […] The performance of each E-AB sensor was characterized to determine their expected response in room temperature (RT).
To fabricate the E-AB sensors, the 2 mm diameter gold disk macro electrodes (CH Instruments, Austin, TX) were hand polished for 2 min in a 1 μm diamond slurry (Buehler, Lake Bluff, IL) followed by polishing for 2 min in 0.05 μm alumina oxide slurry (Buehler, Lake Bluff, IL). All electrodes were rinsed with ultrapure water (Milli-Q Ultrapure Water Purification, Millipore, Billerica, MA, U.S.A.). To remove particulates, the electrodes were sonicated in a low power sonicator for 5 min. Next, the electrodes were electrochemically cleaned in various concentrations of sodium hydroxide and sulfuric acid solutions. Sensor fabrication consists of numerous steps of incubation. First, 2 uL of 100 mM TCEP was added to 1 μL of aptamer and left to incubate for 1 h to perform a disulfide bond reaction. […]

With cocaine the “percent signal change (increase in current)” value was 56%.
